Source: patent publication US5010107A, “Method and composition for achieving anticarcinogenic activity” (priority 1989, dated 1991)
Where two headings read alike, the source gives them in different places.

Legend:
[1] = test system: β-glucuronidase; details: cells, blood, cited from earlier work
[2] = test system: 7,12-dimethylbenz(a)anthracene-induced mammary tumors; assay: DMBA-induced mammary tumor formation in rats fed CGT, HPR or both; format: in vivo, female Sprague Dawley rats; details: for Rats with tumors / Total No. tumors: 20 rats
Experimental: They were maintained on the diets for approximately 4 mos., and were examined (palpated) for mammary tumors weekly. […] The retinoid (HPR) was first dissolved in 25 ml of a vehicle consisting of ethanol-tricaprylin-6% α-tocopherol, then thoroughly mixed with powdered rat chow.

[3] = test system: carcinogenesis; details: higher doses of CGT; cited from earlier work
[4] = test system: 7,12-dimethylbenz(a)anthracene-induced mammary tumorigenesis; details: cited from earlier work
[5] = cited from earlier work
[6] = test system: established DMBA-induced mammary tumors; assay: Growth of established DMBA-induced mammary tumors; format: in vivo, female Sprague Dawley rats; details: 2 mmol/kg diet; within 5 to 10 days
Experimental: (§1) When higher doses (2 mmol/kg diet) of HPR were used, growth arrest was followed within 5 to 10 days by 30% regression of the DMBA-induced mammary tumors. Also, HPR (0.1 uM) inhibited the […] growth of the human breast cancer cell line (MCF-7) to 50% of the control within 7 days.

[7] = test system: established mammary tumors; assay: Growth of established mammary tumors in CD8 F1 mice; format: in vivo
Experimental: as §1

[8] = test system: cellular cAMP (cyclic AMP) and histone kinases; details: cited from earlier work

Q: For `O=C(O)[C@@H](O)[C@H]1OC(=O)[C@H](O)[C@H]1O` [GL, D-glucaro-1,4-lactone], which “inhibition of β-glucuronidase” value ([1]; urine and intestine) is on record?
A: The value was “potent inhibitor of β-glucuronidase”.

Q: Which results are given for `O=C([O-])[C@@H](O)[C@@H](O)[C@H](O)[C@@H](O)C(=O)[O-].[Ca+2]` [CGT, calcium glucarate]?
A: inhibition of tumor incidence ([2]; 1.0% CGT alone): 20%; inhibition of tumors/rat ([2]; 1.0% CGT alone): 9%; Tumor Incidence ([2]; 1% CGT in chow diet): 55; Tumors per rat ([2]; 1% CGT in chow diet): 1.0; Rats with tumors ([2]; 1% CGT in chow diet): 11; Total No. tumors ([2]; 1% CGT in chow diet): 20; Tumor Incidence ([2]; 2% CGT in chow diet): 55; Tumors per rat ([2]; 2% CGT in chow diet): 1.0; Rats with tumors ([2]; 2% CGT in chow diet): 11; Total No. tumors ([2]; 2% CGT in chow diet): 20; Tumor Incidence ([2]; 4% CGT in chow diet): 35; Tumors per rat ([2]; 4% CGT in chow diet): 0.5; Rats with tumors ([2]; 4% CGT in chow diet): 7; Total No. tumors ([2]; 4% CGT in chow diet): 10; inhibition of β-glucuronidase ([1]; urine, intestine and liver): effective as inhibitors of β-glucuronidase; effectiveness against lung, colon and mammary carcinogenesis [3]: effective against lung, colon and mammary carcinogenesis; tumor induction relative to controls ([4]; 4% CGT diet, started two weeks after carcinogen, by 28 weeks): 30%; food consumption and weight gain ([4]; CGT-supplemented diet vs normal chow diet): ate quantities of food and had weight gain identical to those on the normal chow diet; steady-state level of sex hormones ([4]; anti-promotional effect of CGT, probable cause): reduction in the steady-state level of sex hormones; release of D-glucaro-1,4-lactone (GL) when fed ([5]; fed): slowly release D-glucaro-1,4-lactone (GL)

Q: Which results are given for 2,4-di-O-acetyl-D-glucaro-1,4-lactone?
A: inhibition of β-glucuronidase ([1]; urine, intestine and liver): effective as inhibitors of β-glucuronidase; release of D-glucaro-1,4-lactone (GL) when fed ([5]; in vivo): slowly release D-glucaro-1,4-lactone (GL)

Q: Which “inhibition of β-glucuronidase” value ([1]; urine, intestine and liver) does the source give for `O=C(O)[C@@H](O)[C@@H](O)[C@H](O)[C@@H](O)C(=O)[O-].[K+]` [potassium hydrogen glucarate] here?
A: The value was “effective as inhibitors of β-glucuronidase”.

Q: And the “release of D-glucaro-1,4-lactone (GL) when fed” value ([5]; fed)?
A: Its value is “slowly release D-glucaro-1,4-lactone (GL)”.

Q: For `CC1=C(/C=C/C(C)=C/C=C/C(C)=C/C(=O)Nc2ccc(O)cc2)C(C)(C)CCC1` [HPR, N-(4-hydroxyphenyl)retinamide], which “inhibition of tumor incidence” value ([2]; 0.75 mmol/kg HPR alone) is on record?
A: The value was 15%.

Q: What about the inhibition of tumors/rat ([2]; 0.75 mmol/kg HPR alone) of the same compound?
A: Its inhibition of tumors/rat is 9%.

Q: What about the Rats with tumors ([2]; 0.75 mmol/kg diet HPR) of the same compound?
A: The Rats with tumors was 12.

Q: What about the “regression of the DMBA-induced mammary tumors, following growth arrest” value [6] of the same compound?
A: Its value is 30%.

Q: And the “inhibition of tumor growth” value [7]?
A: Its value is 50%.

Q: And the “level of cellular cAMP and of histone kinases” value [8]?
A: Its value is “elevate the level of cellular cAMP (cyclic AMP) and of histone kinases”.
